# Source: ChEMBL document CHEMBL1201862, “PubChem BioAssay data set” (2004)
# Calls of active or inactive are those of the source. Cut-off read from the data, not from the text of the source, for most assays here: actives have a measured EC50 and inactives only a lower limit.
# Columns and labels:
# [1] = target: Luciferin 4-monooxygenase (Photinus pyralis, UniProt P08659); test: firefly luciferase enzyme inhibitors, dose response, biochemical, luminescence (AID 1891)
# [2] = target: T1, RNA-binding protein pos-1 (Caenorhabditis elegans, UniProt G5EF15); test: inhibitors of POS-1/mex-3 RNA binding, dose response, biochemical, fluorescence polarization (AID 1964);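 note: purified POS-1 fused to maltose binding protein made in E. coli; potency of compounds blocking POS-1 binding to fluorescent RNA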
# T1 sequence (G5EF15 whole entry): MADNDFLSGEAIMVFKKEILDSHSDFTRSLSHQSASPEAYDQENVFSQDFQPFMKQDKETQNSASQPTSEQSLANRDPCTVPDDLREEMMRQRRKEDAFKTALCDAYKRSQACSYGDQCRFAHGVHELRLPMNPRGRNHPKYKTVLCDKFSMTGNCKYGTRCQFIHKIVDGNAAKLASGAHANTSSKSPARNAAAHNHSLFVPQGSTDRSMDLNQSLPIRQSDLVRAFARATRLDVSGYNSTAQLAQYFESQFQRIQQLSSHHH
# [3] = Luminescence Cell-Based Dose Confirmation HTS to Identify Inhibitors of Platelet Dense Granule Release. [Related pubchem assays: 1663 (Primary HTS), 1678 (Summary of Project)]; format: functional
# [4] = target: T2, Zinc finger protein mex-5 (Caenorhabditis elegans, UniProt Q9XUB2); test: MEX-5/TCR-2 RNA interaction inhibitors, dose response, biochemical, C. elegans, fluorescence polarization (AID 1960)
# T2 sequence (Q9XUB2 whole entry): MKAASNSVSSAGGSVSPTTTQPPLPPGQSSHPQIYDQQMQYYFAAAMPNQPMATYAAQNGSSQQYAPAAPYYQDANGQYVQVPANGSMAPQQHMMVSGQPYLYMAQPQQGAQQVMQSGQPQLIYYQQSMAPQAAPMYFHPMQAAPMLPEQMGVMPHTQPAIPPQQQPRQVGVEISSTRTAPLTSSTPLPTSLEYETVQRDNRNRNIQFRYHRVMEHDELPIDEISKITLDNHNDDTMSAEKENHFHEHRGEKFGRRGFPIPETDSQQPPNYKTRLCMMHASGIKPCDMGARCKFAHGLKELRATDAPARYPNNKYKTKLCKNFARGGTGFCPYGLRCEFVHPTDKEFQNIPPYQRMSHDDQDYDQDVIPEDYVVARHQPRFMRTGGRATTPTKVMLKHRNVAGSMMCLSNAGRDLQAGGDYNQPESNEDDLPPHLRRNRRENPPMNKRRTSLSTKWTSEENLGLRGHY
# Aminopeptidase N = target: T3, Aminopeptidase N (Plasmodium falciparum FcB1/Columbia, UniProt O96935); test: P. falciparum M1AAP inhibitors, biochemical, fluorogenic H-Leu-NHMec substrate, 1536-well (AID 1445); parameters: species or system Plasmodium falciparum 3D7, 3D7
# T3 sequence (O96935 whole entry): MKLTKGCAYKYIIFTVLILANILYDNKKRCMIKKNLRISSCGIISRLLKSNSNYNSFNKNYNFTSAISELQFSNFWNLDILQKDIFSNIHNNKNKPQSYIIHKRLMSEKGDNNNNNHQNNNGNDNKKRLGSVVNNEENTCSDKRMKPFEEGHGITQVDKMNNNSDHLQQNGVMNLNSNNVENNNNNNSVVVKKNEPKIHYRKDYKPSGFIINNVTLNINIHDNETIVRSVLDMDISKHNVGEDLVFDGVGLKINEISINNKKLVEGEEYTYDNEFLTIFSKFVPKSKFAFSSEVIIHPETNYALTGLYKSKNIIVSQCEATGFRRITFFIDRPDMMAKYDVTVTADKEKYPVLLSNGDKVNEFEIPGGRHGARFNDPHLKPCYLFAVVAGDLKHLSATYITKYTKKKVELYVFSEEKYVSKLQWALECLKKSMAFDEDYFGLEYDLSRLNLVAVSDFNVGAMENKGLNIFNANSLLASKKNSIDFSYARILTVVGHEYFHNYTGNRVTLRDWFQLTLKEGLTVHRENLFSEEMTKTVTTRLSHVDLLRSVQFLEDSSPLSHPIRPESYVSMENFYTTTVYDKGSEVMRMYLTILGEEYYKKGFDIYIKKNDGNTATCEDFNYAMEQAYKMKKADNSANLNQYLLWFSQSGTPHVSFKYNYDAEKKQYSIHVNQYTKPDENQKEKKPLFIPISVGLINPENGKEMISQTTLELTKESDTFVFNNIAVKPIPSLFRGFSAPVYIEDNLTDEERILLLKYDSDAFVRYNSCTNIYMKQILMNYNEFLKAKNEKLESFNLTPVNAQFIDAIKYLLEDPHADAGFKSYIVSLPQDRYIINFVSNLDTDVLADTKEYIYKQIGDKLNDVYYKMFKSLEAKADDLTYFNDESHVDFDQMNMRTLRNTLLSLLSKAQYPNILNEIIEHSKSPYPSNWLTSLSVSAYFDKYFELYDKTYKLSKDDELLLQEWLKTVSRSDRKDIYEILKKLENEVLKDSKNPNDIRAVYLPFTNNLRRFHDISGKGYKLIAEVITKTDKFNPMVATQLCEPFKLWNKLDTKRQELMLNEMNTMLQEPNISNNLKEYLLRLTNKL
# [5] = Shn3 3'UTR reporter inhibitors, dose response, cell-based, Clone20 osteoblasts, firefly luciferase, cherry-picked (AID 624132); format: functional;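 note: firefly luciferase luminescence from reporter carrying the Shn3 3'UTR in osteoblasts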
# [6] = target: T4, Replicative DNA helicase DnaB (Mycobacterium tuberculosis, UniProt P9WMR3); test: DnaB intein splicing inhibitors, dose response, biochemical, cell-free fluorescence (AID 449749); format: functional
# T4 sequence (P9WMR3 whole entry): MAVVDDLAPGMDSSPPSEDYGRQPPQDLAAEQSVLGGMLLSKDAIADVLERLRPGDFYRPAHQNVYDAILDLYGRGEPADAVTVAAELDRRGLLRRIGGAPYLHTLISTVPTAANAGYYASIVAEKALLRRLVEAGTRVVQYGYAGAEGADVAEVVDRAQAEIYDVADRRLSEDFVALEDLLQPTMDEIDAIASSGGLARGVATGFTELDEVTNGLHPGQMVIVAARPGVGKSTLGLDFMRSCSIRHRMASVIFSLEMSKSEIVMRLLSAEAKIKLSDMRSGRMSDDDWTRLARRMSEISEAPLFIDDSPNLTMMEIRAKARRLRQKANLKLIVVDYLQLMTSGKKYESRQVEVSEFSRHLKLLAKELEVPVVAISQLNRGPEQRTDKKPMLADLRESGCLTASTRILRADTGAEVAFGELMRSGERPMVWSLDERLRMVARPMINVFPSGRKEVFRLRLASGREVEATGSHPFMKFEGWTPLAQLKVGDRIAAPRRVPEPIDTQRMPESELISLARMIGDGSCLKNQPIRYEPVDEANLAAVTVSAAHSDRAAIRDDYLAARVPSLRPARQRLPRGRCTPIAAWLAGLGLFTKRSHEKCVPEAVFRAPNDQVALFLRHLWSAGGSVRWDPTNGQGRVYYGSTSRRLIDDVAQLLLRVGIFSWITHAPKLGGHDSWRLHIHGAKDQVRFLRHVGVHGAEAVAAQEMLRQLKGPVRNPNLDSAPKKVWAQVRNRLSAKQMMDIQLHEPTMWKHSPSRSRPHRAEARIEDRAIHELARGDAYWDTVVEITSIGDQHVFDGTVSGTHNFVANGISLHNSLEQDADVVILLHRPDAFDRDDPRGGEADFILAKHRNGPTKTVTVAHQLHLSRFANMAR
# Protein RecA = target: T5, Protein RecA (Mycobacterium tuberculosis, UniProt P9WHJ3); test: Fluorescence Cell-Free Homogeneous Dose Retest to Identify Inhibitors of RecA-Intein Splicing Activity. [Related pubchem assays (depositor defined):AID2097, AID2223, AID489010, AID492950]; format: functional
# T5 sequence (P9WHJ3 whole entry): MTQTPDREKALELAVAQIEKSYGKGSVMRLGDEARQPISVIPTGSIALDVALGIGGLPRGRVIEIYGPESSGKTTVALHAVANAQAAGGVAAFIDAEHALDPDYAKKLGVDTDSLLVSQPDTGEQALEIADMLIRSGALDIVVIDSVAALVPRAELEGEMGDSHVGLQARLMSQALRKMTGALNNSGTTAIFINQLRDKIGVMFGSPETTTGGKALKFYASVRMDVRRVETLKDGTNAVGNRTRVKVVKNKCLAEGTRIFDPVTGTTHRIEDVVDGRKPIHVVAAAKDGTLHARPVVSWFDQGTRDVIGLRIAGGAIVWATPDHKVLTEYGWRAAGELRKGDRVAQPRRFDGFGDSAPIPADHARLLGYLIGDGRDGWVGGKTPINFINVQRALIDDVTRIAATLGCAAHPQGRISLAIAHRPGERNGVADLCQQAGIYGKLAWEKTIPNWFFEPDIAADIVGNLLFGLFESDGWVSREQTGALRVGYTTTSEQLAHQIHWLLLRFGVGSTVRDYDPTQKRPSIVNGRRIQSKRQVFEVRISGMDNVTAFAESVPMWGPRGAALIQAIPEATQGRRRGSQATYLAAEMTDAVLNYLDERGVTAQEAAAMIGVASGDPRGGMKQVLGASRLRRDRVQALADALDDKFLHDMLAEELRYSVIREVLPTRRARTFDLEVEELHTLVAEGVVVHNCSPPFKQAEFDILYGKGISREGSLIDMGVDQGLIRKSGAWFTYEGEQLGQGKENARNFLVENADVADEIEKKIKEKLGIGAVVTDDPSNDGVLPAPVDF
# [7] = P. falciparum Dd2 growth inhibitors, dose response, SYBR Green, cherry-picked samples (AID 1159567); format: functional, cell-based
# [8] = NIH-3T3 fibroblast cytotoxicity, dose response, cytotoxicity control, cell-based, fluorescence, Alamar Blue, secondary assay (AID 2327); format: functional;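 note: NIH-3T3 mouse fibroblasts cultured with fluconazole at 8 µg/mL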
# [9] = C. albicans growth with fluconazole, confirmation, fluorescence, retest (AID 2467); format: functional, cell-based
# Chain of Luciferin 4-monooxygenase (P08659 whole entry, the tested form may be a part): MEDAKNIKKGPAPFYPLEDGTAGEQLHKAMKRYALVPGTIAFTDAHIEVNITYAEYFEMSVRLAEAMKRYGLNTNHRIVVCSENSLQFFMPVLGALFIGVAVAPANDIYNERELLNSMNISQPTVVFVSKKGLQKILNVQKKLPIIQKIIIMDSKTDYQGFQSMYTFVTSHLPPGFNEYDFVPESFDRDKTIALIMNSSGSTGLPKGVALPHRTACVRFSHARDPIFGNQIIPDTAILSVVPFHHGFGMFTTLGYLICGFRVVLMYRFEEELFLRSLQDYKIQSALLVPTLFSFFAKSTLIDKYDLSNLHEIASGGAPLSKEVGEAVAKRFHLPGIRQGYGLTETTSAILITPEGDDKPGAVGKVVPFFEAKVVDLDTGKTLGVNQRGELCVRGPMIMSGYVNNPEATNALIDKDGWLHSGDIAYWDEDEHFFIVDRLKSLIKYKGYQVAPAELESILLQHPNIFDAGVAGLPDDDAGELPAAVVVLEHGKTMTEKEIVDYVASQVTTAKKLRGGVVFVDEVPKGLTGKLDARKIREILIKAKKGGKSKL
smiles,measurement,setting,value
CSc1nnc(N2C(=O)C(O)=C(C(=O)c3ccco3)C2c2ccc(F)cc2)s1 (stereo unspecified),EC50,[1],> 112 µM (not active)
same,EC50,[2],> 150 µM (not active)
same,EC50,[3],> 112 µM (not active)
same,EC50,[4],82.8 µM (active)
Cc1ccc(/C=C/C(=O)c2ccc(N3CCOCC3)cc2)s1,EC50,[2],> 300 µM (not active)
same,EC50,[4],> 300 µM (not active)
NC(=O)c1sc2nnc(-c3ccccc3)c(-c3ccccc3)c2c1N,EC50,[2],> 300 µM (not active)
same,EC50,[4],> 300 µM (not active)
Cc1noc(NS(=O)(=O)c2ccc(NC(=O)C(CC(C)C)N3C(=O)c4ccccc4C3=O)cc2)c1C (stereo unspecified),IC50,Aminopeptidase N,7.56 µM (active)
CCOC(=O)Cn1c(S(=O)(=O)Cc2ccccc2Cl)nc(-c2ccccc2)c1-c1ccccc1,AC50,[5],9.29 µM (active)
CCCCS/C(=C(/C#N)C(N)=O)c1cc2c([nH]1)CCCC2,AC50,[6],> 380 µM (inactive)
same,EC50,Protein RecA,15.6 µM (active)
C[C@H]1CN([C@@H](C)CO)S(=O)(=O)c2ccc(C#Cc3ccccc3)cc2O[C@H]1CN(C)C(=O)C1CC1,AC50,[7],3.95 µM (active)
Cc1ccc(/C=N/NC(=O)c2nnn(-c3nonc3N)c2-c2cccs2)cc1,EC50,[2],> 300 µM (not active)
same,EC50,[4],> 300 µM (not active)
CCN(CC)C(=O)Cn1c(=O)n(-c2ccccc2)c(=O)c2c3c(sc21)CCC3,EC50,[8],> 160 µM (inactive)
same,IC50,Aminopeptidase N,51.2 µM (active)
same,EC50,[9],> 38 µM (not active)
CN(C)c1oc(-c2cccs2)nc1C#N,IC50,Aminopeptidase N,104 µM (active)
O=C1CN(S(=O)(=O)c2ccccc2)C[C@@H]2[C@H](c3ccc(C#CCc4ccccc4)cc3)[C@@H](CO)N12,AC50,[7],4.23 µM (active)
COc1cc(CN2[C@@H]3CNC[C@H]2[C@@H]3c2ccc(-c3ccccc3)cc2)cc(OC)c1,AC50,[7],6.99 µM (active)
